Like-named read-outs stand apart in the source and are kept apart here.

The results in this text go back to publication PMC10272563, “Novel gold(III)-dithiocarbamate complex targeting bacterial thioredoxin reductase: antimicrobial activity, synergy, toxicity, and mechanistic insights” (Frontiers in Microbiology, 2023).

The target of experiment [1] is T1, E. coli TrxR (thioredoxin reductase) (Escherichia coli, UniProt P0A9P4). As to the kind of experiment: Trx-coupled DTNB reduction assay, purified recombinant enzyme; activity recovered after desalting. It counts as biochemical. Set-up: gene trxB; GenBank PSY25180.1, residues 1–321, His6-SUMO tag removed.
Experiment [2] concerns the target T1, E. coli TrxR (thioredoxin reductase). More on the design: gene trxB.

T1 sequence (P0A9P4 whole entry, the tested form may be a part): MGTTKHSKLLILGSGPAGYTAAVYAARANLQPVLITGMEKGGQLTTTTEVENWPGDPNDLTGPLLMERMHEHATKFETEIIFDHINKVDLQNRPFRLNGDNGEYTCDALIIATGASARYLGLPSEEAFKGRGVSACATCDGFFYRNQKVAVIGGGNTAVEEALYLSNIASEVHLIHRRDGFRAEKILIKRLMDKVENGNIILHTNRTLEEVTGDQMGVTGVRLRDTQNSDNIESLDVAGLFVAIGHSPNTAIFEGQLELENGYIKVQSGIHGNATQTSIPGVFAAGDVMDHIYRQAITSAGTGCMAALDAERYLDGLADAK
T1 sequence (P0AA25 whole entry, further chain, the tested form may be a part): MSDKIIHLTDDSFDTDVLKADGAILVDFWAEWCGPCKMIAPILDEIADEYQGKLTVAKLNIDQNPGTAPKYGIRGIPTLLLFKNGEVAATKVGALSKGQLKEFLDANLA

In the case of [Au(dppta)(mrdtc)][PF6] [compound 2], the IC50 (as a rule, the point on the concentration scale where inhibition reaches its midpoint) in experiment [1] was 1920 nM. With `CC[P](CC)(CC)=[Au][S][C@@H]1O[C@H](COC(C)=O)[C@@H](OC(C)=O)[C@H](OC(C)=O)[C@H]1OC(C)=O` [auranofin], in experiment [2], the midpoint of inhibition, the IC50, lay at 1110 nM. For [Au(dppta)Cl2] [compound 1], the 50% inhibitory concentration (IC50) in experiment [1] was 1330 nM.
